Source: the OPERA property sets (Mansouri et al. 2018)

Structure (SMILES) | logP
Cc1ccc(NC2=NCCN2)c(Cl)c1 | 1.8
CCCCCCOc1ccccc1NC(=O)OCCN1CCCCC1 | 5.29
NCCCCC(=O)O | -2.63
CC(=O)COc1ccccc1 | 1.04
N#CCc1cccc(Oc2ccccc2)c1 | 3.03
CCCN(CCC)C1CCOc2ccc(O)cc21 (centres undefined) | 3.17
O=C(CF)NC(CO)C(O)c1ccc([N+](=O)[O-])cc1 (centres undefined) | 0.15
CCOS(=O)(=O)c1ccc(C)cc1 | 1.81
O=c1cc[nH]c2ccccc12 | 0.58
CCCl | 1.43
O=C(O)c1ccccc1Br | 2.2
CCOC(=O)c1ccc(N=NN(C)CCO)cc1 | 2.66
COc1ccc(S(I)=C(N(C)C)N(C)C)cc1 (centres undefined) | -0.51
CS(=O)(=O)c1ccc(N)cc1 | -0.12
Cc1ccc2c(c1)c([N+](=O)[O-])cc[n+]2[O-] | 1.43
Nc1ccn([C@@H]2C=C(CO)[C@@H](O)[C@H]2O)c(=O)n1 | -2.45
CCCC(NC(C)=O)C(N)=O (centres undefined) | -0.45
O=[N+]([O-])c1ccc(C=NO)cc1 | 1.95
O=S(=O)(N=[N+]([O-])c1ccccc1)c1ccccc1 | 2.87
Ic1ccc2ccccc2n1 | 3.04
O=[N+]([O-])c1ncn(CC(O)CCl)n1 (centres undefined) | 0.05
Oc1ccc2ccccc2c1 | 2.7
CCC(C)Cl (centres undefined) | 2.33
c1ccoc1 | 1.34
Cc1nn(-c2ccccc2)c(C)c1N=O | 2.28

Structure (SMILES) | logP
c1ccc(-n2cnnn2)cc1 | 1.09
O=[As](O)(O)c1ccccc1 | 0.06
c1ccc(COc2cccc3cccnc23)cc1 | 3.51
CNc1nc2ccccc2o1 | 1.82
COc1ccc(C=O)cc1C | 2.23
CCOc1ccccc1S(I)=C(N(C)C)N(C)C (centres undefined) | -0.06
Oc1ccc(Cn2cc[nH]c2=S)cc1 | 1.02
CC1(C)CCC(C)(C)O1 | 2.06
CCC1(c2ccccc2)C(=O)NC(=O)N(C(C)C)C1=O (centres undefined) | 2.58
CC(=O)Nc1cccs1 | 1.1
O=C1CC(c2ccc(C(F)(F)F)cc2)Cc2c1c(=O)c1cc(Cl)ccc1n2O (centres undefined) | 3.46
CNC(=S)NCc1ccccc1 | 1.35
C=CCO | 0.17
NC(=O)NC(=O)Cc1ccccc1 | 0.87
Cc1cccc(Cl)c1NC1=NCCN1 | 1.71
COc1ccc(S(I)=C(N(C)C)N(C)C)c([N+](=O)[O-])c1 (centres undefined) | -0.22
COC(=O)CCCCC(=O)OC | 1.03
O=C(NC(CO)C(O)c1ccc(-c2ccccc2)cc1)C(Cl)Cl (centres undefined) | 2.86
CCCCC(CC)COC(=O)n1cnc(CC(NC(=O)C2CCC(=O)N2)C(=O)N2CCCC2C(N)=O)c1 (centres undefined) | 1.82
Cc1cccc(S(I)=C(N(C)C)N(C)C)c1 (centres undefined) | -0.14
COCC(=O)Nc1c(I)c(C(=O)NCC(O)CO)c(I)c(C(=O)N(C)CC(O)CO)c1I (centres undefined) | -2.05
O=C(O)Cn1cccc1 | 0.7
Cc1ccc2ccccc2c1 | 3.86
C=CBr | 1.57
